#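 Cultured in 96-well plates, cells were exposed to test compound for 48 hours across five concentrations. TGI: total growth inhibition.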
# What was measured:
# Test in all cases: growth of human tumour cells (NCI), 48 h
# 786-0 renal = system: 786-0 renal
# A498 renal = system: A498 renal
# A549 NSCLC = system: A549 NSCLC
# ACHN renal = system: ACHN renal
# BT-549 breast = system: BT-549 breast
# CAKI-1 renal = system: CAKI-1 renal
# CCRF-CEM leukemia = system: CCRF-CEM leukemia
# COLO 205 colon = system: COLO 205 colon
# DU-145 prostate = system: DU-145 prostate
# EKVX NSCLC = system: EKVX NSCLC
# HCC-2998 colon = system: HCC-2998 colon
# HCT-116 colon = system: HCT-116 colon
# HCT-15 colon = system: HCT-15 colon
# HL-60(TB) leukemia = system: HL-60(TB) leukemia
# HOP-62 NSCLC = system: HOP-62 NSCLC
# HOP-92 NSCLC = system: HOP-92 NSCLC
# HS 578T breast = system: HS 578T breast
# HT29 colon = system: HT29 colon
# IGROV1 ovarian = system: IGROV1 ovarian
# K-562 leukemia = system: K-562 leukemia
# KM12 colon = system: KM12 colon
# LOX IMVI melanoma = system: LOX IMVI melanoma
# M14 melanoma = system: M14 melanoma
# MALME-3M melanoma = system: MALME-3M melanoma
# MCF7 breast = system: MCF7 breast
# MDA-MB-231 breast = system: MDA-MB-231 breast
# MDA-MB-435 = system: MDA-MB-435
# MDA-N = system: MDA-N
# MOLT-4 leukemia = system: MOLT-4 leukemia
# NCI-H226 lung = system: NCI-H226 lung
# NCI-H23 lung = system: NCI-H23 lung
# NCI-H460 lung = system: NCI-H460 lung
# NCI/ADR-RES ovarian = system: NCI/ADR-RES ovarian
# OVCAR-3 ovarian = system: OVCAR-3 ovarian
# OVCAR-4 ovarian = system: OVCAR-4 ovarian
# OVCAR-5 ovarian = system: OVCAR-5 ovarian
# OVCAR-8 ovarian = system: OVCAR-8 ovarian
# PC-3 prostate = system: PC-3 prostate
# RPMI-8226 leukemia = system: RPMI-8226 leukemia
# RXF 393 renal = system: RXF 393 renal
# SF-268 CNS = system: SF-268 CNS
# SF-295 CNS = system: SF-295 CNS
# SF-539 CNS = system: SF-539 CNS
# SK-MEL-2 melanoma = system: SK-MEL-2 melanoma
# SK-MEL-28 melanoma = system: SK-MEL-28 melanoma
# SK-MEL-5 melanoma = system: SK-MEL-5 melanoma
# SK-OV-3 ovarian = system: SK-OV-3 ovarian
# SN12C renal = system: SN12C renal
# SNB-19 CNS = system: SNB-19 CNS
# SNB-75 CNS = system: SNB-75 CNS
# SR leukemia = system: SR leukemia
# SW-620 colon = system: SW-620 colon
# T-47D breast = system: T-47D breast
# TK-10 renal = system: TK-10 renal
# U251 CNS = system: U251 CNS
# UACC-257 melanoma = system: UACC-257 melanoma
# UACC-62 melanoma = system: UACC-62 melanoma
# UO-31 renal = system: UO-31 renal
smiles,measurement,setting,value
CN(C)CC1CCC/C(=C\c2ccc(OC(=O)/C=C/c3ccccc3)cc2)C1=O (stereo not drawn),TGI,786-0 renal,2.06 µM
same,TGI,A498 renal,23.2 µM
same,TGI,A549 NSCLC,8.4 µM
same,TGI,ACHN renal,6.62 µM
same,TGI,BT-549 breast,4.47 µM
same,TGI,CAKI-1 renal,3.38 µM
same,TGI,CCRF-CEM leukemia,0.808 µM
same,TGI,COLO 205 colon,3.95 µM
same,TGI,DU-145 prostate,7.11 µM
same,TGI,EKVX NSCLC,4.89 µM
same,TGI,HCC-2998 colon,> 28.1 µM
same,TGI,HCT-116 colon,2.8 µM
same,TGI,HCT-15 colon,3.14 µM
same,TGI,HL-60(TB) leukemia,> 100 µM
same,TGI,HOP-62 NSCLC,10.6 µM
same,TGI,HOP-92 NSCLC,4.65 µM
same,TGI,HS 578T breast,13.1 µM
same,TGI,HT29 colon,3.75 µM
same,TGI,IGROV1 ovarian,14 µM
same,TGI,K-562 leukemia,> 42.6 µM
same,TGI,KM12 colon,3.44 µM
same,TGI,LOX IMVI melanoma,1.7 µM
same,TGI,M14 melanoma,5.35 µM
same,TGI,MALME-3M melanoma,5.02 µM
same,TGI,MCF7 breast,1.93 µM
same,TGI,MDA-MB-231 breast,8.2 µM
same,TGI,MDA-MB-435,7.37 µM
same,TGI,MDA-N,6.28 µM
same,TGI,MOLT-4 leukemia,> 37.1 µM
same,TGI,NCI-H226 lung,9.54 µM
same,TGI,NCI-H23 lung,4.04 µM
same,TGI,NCI-H460 lung,21.9 µM
same,TGI,NCI/ADR-RES ovarian,5.12 µM
same,TGI,OVCAR-3 ovarian,3.63 µM
same,TGI,OVCAR-4 ovarian,9.44 µM
same,TGI,OVCAR-5 ovarian,7.24 µM
same,TGI,OVCAR-8 ovarian,3.9 µM
same,TGI,PC-3 prostate,19.5 µM
same,TGI,RPMI-8226 leukemia,6.88 µM
same,TGI,RXF 393 renal,3.71 µM
same,TGI,SF-268 CNS,8.67 µM
same,TGI,SF-295 CNS,13.7 µM
same,TGI,SF-539 CNS,3.76 µM
same,TGI,SK-MEL-2 melanoma,7.79 µM
same,TGI,SK-MEL-28 melanoma,7.49 µM
same,TGI,SK-MEL-5 melanoma,12.9 µM
same,TGI,SK-OV-3 ovarian,> 50.9 µM
same,TGI,SN12C renal,4.43 µM
same,TGI,SNB-19 CNS,20.7 µM
same,TGI,SNB-75 CNS,17 µM
same,TGI,SR leukemia,> 100 µM
same,TGI,SW-620 colon,4.94 µM
same,TGI,T-47D breast,2.58 µM
same,TGI,TK-10 renal,3.76 µM
same,TGI,U251 CNS,3.84 µM
same,TGI,UACC-257 melanoma,21.2 µM
same,TGI,UACC-62 melanoma,15.8 µM
same,TGI,UO-31 renal,3.66 µM
